Experimental data reported in patent US20250114374A1, “BCL-2 INHIBITORS” (Newave Pharmaceutical Inc., priority 2021, published 2025).

System: RS4; 11 with G101V mutation
Test: In vitro anti-proliferation assay (ATPlite luminescence) in BCL-2-dependent ALL cell line RS4;11 with G101V mutation
Type: cell-based
Details: cellular anti-proliferative IC50, about 72 hours, medium with 10% FBS, ATPlite; read-out: RS411-G101V IC50
Outline: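 IC50 came from luminescent ATP quantification (ATPlite) following cell lysis. Compound dose ranges were applied for roughly 72 h to about 1×10^4 G101V-mutant RS4;11 cells per well, in 10% FBS medium.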

Row | SMILES | IC50
1 | CC(C)Oc1ccccc1[C@H]1CN(Cc2ccnc3c2OCC(C)(C)O3)CCN1C1CC2(CCN(c3ccc(C(=O)NS(=O)(=O)c4ccc(NCC5CCC(C)(O)CC5)c([N+](=O)[O-])c4)c(N4c5cc6cc[nH]c6nc5O[C@H]5COCC[C@@H]54)c3)CC2)C1 (stereo partly drawn) [Example 127, 4-(2-((S)-4-((3,3-dimethyl-2,3-dihydro-[1,4]dioxino[2,3-b]pyridin-8-yl)methyl)-2-(2-isopropoxyphenyl)piperazin-1-yl)-7-azaspiro[3.5]nonan-7-yl)-N-((4-((((1r,4r)-4-hydroxy-4-methylcyclohexyl)methyl)amino)-3-nitrophenyl)sulfonyl)-2-((5aS,9aR)-6,7,9,9a-tetrahydro-1H-pyrano[3,4-b]pyrrolo[3′,2′:5,6]pyrido[3,2-e][1,4]oxazin-5(5aH)-yl)benzamide] | 8.1 nM
2 | CC(C)Oc1ccccc1[C@H]1CN(Cc2ccc(N3CCOCC3)cn2)CCN1C1CC2(CCN(c3ccc(C(=O)NS(=O)(=O)c4ccc(NCC5CCC(C)(O)CC5)c([N+](=O)[O-])c4)c(N4c5cc6cc[nH]c6nc5O[C@H]5COCC[C@@H]54)c3)CC2)C1 (stereo partly drawn) [Example 128, N-((4-((((1r,4r)-4-hydroxy-4-methylcyclohexyl)methyl)amino)-3-nitrophenyl)sulfonyl)-4-(2-((S)-2-(2-isopropoxyphenyl)-4-((5-morpholinopyridin-2-yl)methyl)piperazin-1-yl)-7-azaspiro[3.5]nonan-7-yl)-2-((5aS,9aR)-6,7,9,9a-tetrahydro-1H-pyrano[3,4-b]pyrrolo[3′,2′:5,6]pyrido[3,2-e][1,4]oxazin-5(5aH)-yl)benzamide] | 22.2 nM
3 | COc1cc(CN2CCN(C3CC4(CCN(c5ccc(C(=O)NS(=O)(=O)c6ccc(NCC7CCC(C)(O)CC7)c([N+](=O)[O-])c6)c(N6c7cc8cc[nH]c8nc7O[C@H]7COCC[C@@H]76)c5)CC4)C3)[C@@H](c3ccccc3OC(C)C)C2)cc2cc(C)oc12 (stereo partly drawn) [Example 129, N-((4-((((1r,4r)-4-hydroxy-4-methylcyclohexyl)methyl)amino)-3-nitrophenyl)sulfonyl)-4-(2-((S)-2-(2-isopropoxyphenyl)-4-((7-methoxy-2-methylbenzofuran-5-yl)methyl)piperazin-1-yl)-7-azaspiro[3.5]nonan-7-yl)-2-((5aS,9aR)-6,7,9,9a-tetrahydro-1H-pyrano[3,4-b]pyrrolo[3′,2′:5,6]pyrido[3,2-e][1,4]oxazin-5(5aH)-yl)benzamide] | 33.9 nM
4 | COc1cc(CN2CCN(C3CC4(CCN(c5ccc(C(=O)NS(=O)(=O)c6cc7c(c([N+](=O)[O-])c6)N[C@@H](C6CCC(C)(O)CC6)CO7)c(N6c7cc8cc[nH]c8nc7O[C@H]7COCC[C@@H]76)c5)CC4)C3)[C@@H](c3ccccc3OC(C)C)C2)cnc1N1CCOCC1 (stereo partly drawn) [Example 130, 2-[(3R,8S)-2,5-dioxa-9,15,17-triazatetracyclo[8.7.0.0^{3,8}.0^{12,16}]heptadeca-1(10),11,13,16-tetraen-9-yl]-4-{2-[(2S)-2-(2-isopropoxyphenyl)-4-{[5-methoxy-6-(morpholin-4-yl)pyridin-3-yl]methyl}piperazin-1-yl]-7-azaspiro[3.5]nonan-7-yl}-N-[(3S)-5-nitro-3-[(1r,4S)-4-hydroxy-4-methylcyclohexyl]-3,4-dihydro-2H-1,4-benzoxazin-7-ylsulfonyl]benzamide] | 13.1 nM
5 | COc1cc(CN2CCN(C3CC4(CCN(c5ccc(C(=O)NS(=O)(=O)c6ccc(NCC7CCOCC7)c([N+](=O)[O-])c6)c(N6c7cc8cc[nH]c8nc7O[C@H]7COCC[C@@H]76)c5)CC4)C3)[C@@H](c3ccccc3OC(C)C)C2)cnc1N1CCOCC1 [Example 131, 2-[(3R,8S)-2,5-dioxa-9,15,17-triazatetracyclo[8.7.0.0^{3,8}.0^{12,16}]heptadeca-1(10),11,13,16-tetraen-9-yl]-4-{2-[(2S)-2-(2-isopropoxyphenyl)-4-{[5-methoxy-6-(morpholin-4-yl)pyridin-3-yl]methyl}piperazin-1-yl]-7-azaspiro[3.5]nonan-7-yl}-N-{3-nitro-4-[(oxan-4-ylmethyl)amino]benzenesulfonyl}benzamide] | 34.6 nM
6 | COc1cc(CN2CCN(C3CC4(CCN(c5ccc(C(=O)NS(=O)(=O)c6ccc(NCC7CCOCC7)c([N+](=O)[O-])c6)c(N6c7cc8cc[nH]c8nc7O[C@H]7COCC[C@@H]76)c5)CC4)C3)[C@@H](c3ccccc3OC(C)C)C2)cnc1N1CCOCC1 [Example 132, 2-[(3R,8S)-2,5-dioxa-9,15,17-triazatetracyclo[8.7.0.0^{3,8}.0^{12,16}]heptadeca-1(10),11,13,16-tetraen-9-yl]-4-{2-[(2S)-2-(2-isopropoxyphenyl)-4-{[5-methoxy-6-(morpholin-4-yl)pyridin-3-yl]methyl}piperazin-1-yl]-7-azaspiro[3.5]nonan-7-yl}-N-{3-nitro-4-[(oxan-4-ylmethyl)amino]benzenesulfonyl}benzamide] | 32.2 nM
7 | COc1cc(CN2CCN(C3CC4(CCN(c5ccc(C(=O)NS(=O)(=O)c6ccc(NCC7CCOCC7)c([N+](=O)[O-])c6)c(N6c7cc8cc[nH]c8nc7O[C@H]7COCC[C@@H]76)c5)CC4)C3)[C@@H](c3ccccc3OC(C)C)C2)cnc1N1CCOCC1 [Example 133, 2-[(3R,8S)-2,5-dioxa-9,15,17-triazatetracyclo[8.7.0.0^{3,8}.0^{12,16}]heptadeca-1(10),11,13,16-tetraen-9-yl]-4-{2-[(2S)-2-(2-isopropoxyphenyl)-4-{[5-methoxy-6-(morpholin-4-yl)pyridin-3-yl]methyl}piperazin-1-yl]-7-azaspiro[3.5]nonan-7-yl}-N-{3-nitro-4-[(oxan-4-ylmethyl)amino]benzenesulfonyl}benzamide] | 32.4 nM
8 | COc1cc(CN2CCN(C3CC4(CCN(c5ccc(C(=O)NS(=O)(=O)c6ccc(NCC7CCC(C)(O)CC7)c([N+](=O)[O-])c6)c(N6c7cc8cc[nH]c8nc7O[C@H]7COCC[C@@H]76)c5)CC4)C3)[C@@H](c3ccccc3OC(C)C)C2)cnc1C1CC1 (stereo partly drawn) [Example 134, 4-{2-[(2S)-4-[(6-cyclopropyl-5-methoxypyridin-3-yl)methyl]-2-(2-isopropoxyphenyl)piperazin-1-yl]-7-azaspiro[3.5]nonan-7-yl}-2-[(3R,8S)-2,5-dioxa-9,15,17-triazatetracyclo[8.7.0.0^{3,8}.0^{12,16}]heptadeca-1(10),11,13,16-tetraen-9-yl]-N-[3-nitro-4-({[(1r,4r)-4-hydroxy-4-methylcyclohexyl]methyl}amino)benzenesulfonyl]benzamide] | 18.8 nM
9 | COc1cc(CN2CCN(C3CC4(CCN(c5ccc(C(=O)NS(=O)(=O)c6ccc(NCC7CCC(C)(O)CC7)c([N+](=O)[O-])c6)c(N6c7cc8cc[nH]c8nc7O[C@H]7COCC[C@@H]76)c5)CC4)C3)[C@@H](c3ccccc3OC(C)C)C2)cnc1C (stereo partly drawn) [Example 135, 2-[(3R,8S)-2,5-dioxa-9,15,17-triazatetracyclo[8.7.0.0^{3,8}.0^{12,16}]heptadeca-1(10),11,13,16-tetraen-9-yl]-4-{2-[(2S)-2-(2-isopropoxyphenyl)-4-[(5-methoxy-6-methylpyridin-3-yl)methyl]piperazin-1-yl]-7-azaspiro[3.5]nonan-7-yl}-N-[3-nitro-4-({[(1r,4r)-4-hydroxy-4-methylcyclohexyl]methyl}amino)benzenesulfonyl]benzamide] | 11.2 nM
10 | COc1ncc(CN2CCN(C3CC4(CCN(c5ccc(C(=O)NS(=O)(=O)c6ccc(NCC7CCC(C)(O)CC7)c([N+](=O)[O-])c6)c(N6c7cc8cc[nH]c8nc7O[C@H]7COCC[C@@H]76)c5)CC4)C3)[C@@H](c3ccccc3OC(C)C)C2)cc1C1CC1 (stereo partly drawn) [Example 136, 4-{2-[(2S)-4-[(5-cyclopropyl-6-methoxypyridin-3-yl)methyl]-2-(2-isopropoxyphenyl)piperazin-1-yl]-7-azaspiro[3.5]nonan-7-yl}-2-[(3R,8S)-2,5-dioxa-9,15,17-triazatetracyclo[8.7.0.0^{3,8}.0^{12,16}]heptadeca-1(10),11,13,16-tetraen-9-yl]-N-[3-nitro-4-({[(1r,4r)-4-hydroxy-4-methylcyclohexyl]methyl}amino)benzenesulfonyl]benzamide] | 35.6 nM
11 | CC(C)Oc1ccccc1[C@H]1CN(Cc2cnc(N3CCOCC3)c(OC(C)C)c2)CCN1C1CC2(CCN(c3ccc(C(=O)NS(=O)(=O)c4ccc(NCC5CCC(C)(O)CC5)c([N+](=O)[O-])c4)c(N4c5cc6cc[nH]c6nc5O[C@H]5COCC[C@@H]54)c3)CC2)C1 (stereo partly drawn) [Example 137, 2-[(3R,8S)-2,5-dioxa-9,15,17-triazatetracyclo[8.7.0.0^{3,8}.0^{12,16}]heptadeca-1(10),11,13,16-tetraen-9-yl]-4-{2-[(2S)-4-{[5-isopropoxy-6-(morpholin-4-yl)pyridin-3-yl]methyl}-2-(2-isopropoxyphenyl)piperazin-1-yl]-7-azaspiro[3.5]nonan-7-yl}-N-[3-nitro-4-({[(1r,4r)-4-hydroxy-4-methylcyclohexyl]methyl}amino)benzenesulfonyl]benzamide] | 41.5 nM
12 | COc1cc(CN2CCN(C3CC4(CCN(c5ccc(C(=O)NS(=O)(=O)c6ccc(NC[C@H]7CC[C@](C)(O)CC7)c([N+](=O)[O-])c6)c(N6c7cc8cc[nH]c8nc7O[C@H]7COCC[C@@H]76)c5)CC4)C3)[C@H](c3ccccc3C)C2)cnc1N1CCOC[C@@H]1C [Example 138, N-((4-((((1r,4r)-4-hydroxy-4-methylcyclohexyl)methyl)amino)-3-nitrophenyl)sulfonyl)-4-(2-((R)-4-((5-methoxy-6-((S)-3-methylmorpholino)pyridin-3-yl)methyl)-2-(o-tolyl)piperazin-1-yl)-7-azaspiro[3.5]nonan-7-yl)-2-((5aS,9aR)-6,7,9,9a-tetrahydro-1H-pyrano[3,4-b]pyrrolo[3′,2′:5,6]pyrido[3,2-e][1,4]oxazin-5(5aH)-yl)benzamide] | 1.7 nM
